Like-named read-outs stand apart in the source and are kept apart here.
What was measured:
[1] = cited from earlier work
[2] = target: T1, rat α3β4 nAChRs (Rattus norvegicus, UniProt P04757+P12392); experiment: [3H]epibatidine competition binding, rat α3β4 nAChRs expressed in HEK cells
T1 construct: expressed in transfected cells; the efflux text says only stably transfected cells
Procedure: (§1) Briefly, cultured cells at >80% confluence were removed from their flasks (80 cm^2) with a disposable cell scraper and placed in 10 ml of 50 mM Tris HCl buffer (pH 7.4, 4° C.). The cell suspension was centrifuged at 10,000×g for 5 min and the pellet was collected. For cells treated chronically with nicotinic agonists during culturing, the pellet was washed two more times by centrifugation in fresh buffer to remove residual drug. The cell pellet was then homogenized in 10 ml buffer with a polytron homogenizer (Model PT2100, 12 mm aggregate, 26,000 rpm, 20 seconds) and centrifuged at 36,000 g for 10 min at 4° C. The membrane pellet was resuspended in fresh buffer, and aliquots of the membrane preparation equivalent to 30 to 200 μg protein were used for binding assays. […] Bound and free ligands were separated by vacuum filtration through Whatman GF/C filters treated with 0.5% polyethylenimine. The filter-retained radioactivity was measured by liquid scintillation counting. Specific binding was defined as the difference between total binding and nonspecific binding. Data from saturation and competition binding assays were analyzed using Prism 4 (GraphPad Software, San Diego, Calif.).
(§2) All ligand binding assays were carried out using rat or human nAChRs heterologously expressed in human cells or in native rat brain tissues.

[3] = target: T2, rat α4β2 nAChRs (Rattus norvegicus, UniProt P09483+P12390); experiment: [3H]epibatidine competition binding, rat α4β2 nAChRs expressed in HEK cells
T2 construct: expressed in transfected cells; host or cells: HEK cells (membrane homogenates)
Procedure: as §1, with “drug.” for “drug. The cell pellet was then homogenized in 10 ml buffer with a polytron homogenizer (Model PT2100, 12 mm aggregate, 26,000 rpm, 20 seconds) and centrifuged at 36,000 g for 10 min at 4° C. The membrane pellet was resuspended in fresh buffer, and aliquots of the membrane preparation equivalent to 30 to 200 μg protein were used for binding assays.”
as §2

[4] = target: T3, human α4β2 nAChRs (Homo sapiens, UniProt P17787+P43681); experiment: Inhibition of nicotine-stimulated 86Rb+ efflux, cells expressing human α4β2 nAChRs; assay type: cell-based
T3 construct: expressed in transfected cells; the efflux text says only stably transfected cells
Procedure: (§3) In brief, cells were plated into 24-well plates coated with poly-D-lysine. […] The cells were then incubated in growth medium (0.5 ml/well) containing ^86Rb^+ (2 μCi/ml) for 4 hour at 37° C. The loading mixture was then aspirated, and the cells were washed four times with 1 ml buffer (15 mM HEPES, 140 mM NaCl, 2 mM KCl, 1 mM MgSO4, 1.8 mM CaCl2, 11 mM Glucose, pH 7.4). One ml of buffer with or without compounds to be tested was then added to each well. After incubation for 2 min, the assay buffer was collected for measurements of ^86Rb^+ released from the cells. Cells were then lysed by adding 1 ml of 100 mM NaOH to each well, and the lysate was collected for determination of the amount of ^86Rb^+ that was in the cells at the end of the efflux assay. Radioactivity of assay samples and lysates was measured by liquid scintillation counting. Total loading (cpm) was calculated as the sum of the assay sample and the lysate of each well. The amount of ^86Rb^+ efflux was expressed as a percentage of […] loaded. […] IC50 values were determined by nonlinear least-squares regression analyses (GraphPad, San Diego, Calif.).

[5] = target: T1, rat α3β4 nAChRs; assay type: cell-based; conditions: stimulation of 86Rb+ efflux
Procedure: as §3
(§4) The agonist activities of ligands on nAChRs were assessed by measuring agonist-stimulated ^86Rb^+ efflux from stably transfected cells.

[6] = target: T3, human α4β2 nAChRs; assay type: cell-based; conditions: stimulation of 86Rb+ efflux
Procedure: as §3, §4

[7] = target: T1, rat α3β4 nAChRs; experiment: Inhibition of nicotine-stimulated 86Rb+ efflux, cells expressing rat α3β4 nAChRs; assay type: cell-based
Procedure: as §3

[8] = target: T1, rat α3β4 nAChRs; conditions: 100 pM [3H]EB; published previously (Xiao and Kellar, 2004); cited from earlier work
[9] = target: T2, rat α4β2 nAChRs; conditions: 100 pM [3H]EB; published previously (Xiao and Kellar, 2004); cited from earlier work
[10] = target: native nAChRs from rat forebrain (Rattus norvegicus, UniProt P09483+P12390); conditions: read-out: Ki Forebrain (rat); 100 pM [3H]EB; published previously (Xiao and Kellar, 2004); cited from earlier work
[11] = 10 min pretreatment before nicotine, read-out: Desensitization Potency (IC50(D,10 min), nM) α4β2
[12] = applied simultaneously with nicotine, read-out: Acute Antagonist Potency (IC50(A), nM) α4β2
[13] = 10 min pretreatment before nicotine, read-out: Desensitization Potency (IC50(D,10 min), nM) α3β4
[14] = applied simultaneously with nicotine, read-out: Acute Antagonist Potency (IC50(A), nM) α3β4
[15] = example tables, species not given, read-out: Equilibrium binding affinity (Ki, nM) α3β4
[16] = example tables, species not given, read-out: Equilibrium binding affinity (Ki, nM) α4β2
[17] = Acute Antagonist Potency (IC50(A), nM) α4β2, applied simultaneously with nicotine
[18] = Desensitization Potency (IC50(D,10 min), nM) α4β2, 10 min pretreatment before nicotine
[19] = Acute Antagonist Potency (IC50(A), nM) α3β4, applied simultaneously with nicotine
[20] = Desensitization Potency (IC50(D,10 min), nM) α3β4, 10 min pretreatment before nicotine

SMILES	Ki [2] [nM]	Ki [3] [nM]	IC50 [4, 11] [nM]	IC50 [4, 12] [nM]	Agonist Activity α3β4 [5]	Agonist Activity α4β2 [6]	IC50 [7, 13] [nM]	IC50 [7, 14] [nM]	Ki [2, 15] [nM]	Ki [3, 16] [nM]	IC50 [4, 17] [nM]	IC50 [4, 18] [nM]	IC50 [7, 19] [nM]	IC50 [7, 20] [nM]	also measured
c1cnc2cc3c(cc2n1)[C@@H]1CNC[C@H]3C1 [varenicline]															nausea, share of clinical trial participants [1]: ~30%
CN1CCC[C@H]1COc1cncc(C#CCNC(=O)OC(C)(C)C)c1 [ZW-97]	75000	1.4	22	> 10000	Not detected	Not detected	6900	> 10000							
CN1CCC[C@H]1COc1cncc(C#Cc2ccccc2)c1 [ZW-98]			170	> 10000	Not detected	Not detected	5300	> 10000	8100	0.51					
CN1CCC[C@H]1COc1cncc(C#CC(C)(C)O)c1 [ZW-88]	61000				Not detected	Not detected				2.9	> 10000	890	> 10000	> 10000	
CNc1ccccc1C(=O)OCC#Cc1cncc(OC[C@@H]2CCN2)c1 [Sazetidine-B]	1300	0.22	30	> 10000	Not detected	Not detected	6000	> 10000							
CN1CCC[C@H]1COc1cncc(C#CCCCCCCCCO)c1 [ZW-93]					Not detected	Not detected			66000	6.1	7400	460	4600	3800	
O=c1cc(CO)cc2n1CC1CNCC2C1 (stereo not shown) [SKC-2-203]			600	> 10000	Not detected	Not detected	> 10000		13000	11					IC50 ([7]; read-out: Acute Antagonist Potency (IC50(A), nM) α3β4): > 10000 nM
CO[C@H]1CC=C2CCN3CCC4=C(CC(=O)OC4)[C@]23C1 [DHβE, dihydro-β-erythroidine]															Ki [8]: 110 µM; Ki [9]: 0.6 ± 0.07 µM; Ki [10]: 0.13 ± 0.05 µM; IC50 ([7]; added simultaneously with 100 μM nicotine, mean ± SEM of 3 to 7 experiments, read-out: IC50 α3β4 nAChRs, 0 min Pretreatment): 160000 nM; IC50 ([7]; read-out: IC50 α3β4 nAChRs, 10 min Pretreatment, 10 min preincubation, then 100 μM nicotine, mean ± SEM of 3 to 7 experiments): 130000 nM
FCCCCC#Cc1cncc(OC[C@@H]2CCN2)c1 [ZW-104]		0.21			Not detected	Not detected			5500		> 10000	5	9400	5700	
C#Cc1cncc(OC[C@@H]2CCCN2C)c1 [ZW-87]					Not detected	Not detected			6800	1.6	> 10000	50	> 10000	> 10000	
